Converted amounts (≈) assume the structure as drawn. Like-named read-outs stand apart in the source and are kept apart here.
Columns and labels:
Format in all cases: cell-based
[1] = system: Escherichia coli; assay: MIC agar dilution, micro-organism 1 (10418); conditions: Escherichia coli 10418
Method: (§1) Throughout the period of testing the microbial strains were subcultured and incubated for 18-20 hours at 37° C. on a weekly basis. Horse blood agar plates were used to sustain the micro-organisms both prior to and throughout testing. The alkoxylated alkanols listed in Table II below were obtained (these are obtainable from Sigma-Aldrich Company Ltd, Dorset, England), each having a GC purity of at least 97%.
(§2) Molar equivalent concentrations were used to allow comparison between compounds of differing molecular mass. Due to weighing difficulties, any compound in solid form was melted in a water bath prior to dilution. To make ten-times strength concentrations, which takes into account agar dilution, 0.0352 mmol of each compound was weighed into plastic universal bottles and 4 mL of sterile distilled water (SDW) was added. To produce a homogenous emulsion the universals were vortexed; once achieved the emulsions were serial diluted by adding 2 mL to 2 mL of SDW.
(§3) Myristyl alcohol and lauryl alcohol were re-weighed and dissolved in 25 μL of the polar solvent 1-methyl-2-pyrrolidone (M6762; Sigma-Aldrich) in sterile glass universals due to an inability to achieve an even suspension. To maintain an even emulsion in the presence of SDW 37.5 μL of the non-ionic detergent Tween 20 (P1379, Sigma-Aldrich) was also added. 3.9375 mL of SDW was added to these, to create a 4 mL volume; they were vortexed and diluted as before.
(§4) For every 100 mL of Isosensitest agar (IST) (CM0471; Oxoid, Basingstoke, England), 3.1 g of the IST powder was added to 100 mL SDW (as per manufacturer's instructions) and sterilised for 15 minutes at 121° C. Once sterilised, the molten agar was cooled to 50° C. in a water-bath. Subsequently 4.8 g of CCEY powder (BC2160; Bioconnections, Wetherby, England), also known as Brazier's medium, was added to 100 mL SDW for every 100 mL of agar needed. This was then sterilised for 15 minutes at 121° C. Once sterilised the molten agar was cooled to 50° C. in a water-bath and 4 mL of egg-yolk emulsion (S2073; TCS Biosciences Ltd, Buckingham, United Kingdom) and 1 mL of lysed defibrinated horse blood (HB035; TCS Biosciences Ltd, Buckingham, United Kingdom) were also added for every 100 mL needed. Horse blood lysis is achieved by dilution to half concentration with SDW; when fully lysed the mixture will turn dark red in colour.
(§5) 18 mL agar was added to each universal and then poured into sterile Petri dishes. This step creates a 1/10 dilution resulting in agar plates of the required strength. Control plates for each set of strains were created by adding 18 mL of agar to 2 mL of SDW.
(§6) Suspensions of each bacterial species were prepared with a density equal to that of a 0.5 McFarland standard using a densitometer. All suspensions were made using sterile distilled water and fresh 18-20 hour cultures. As a 0.5 McFarland standard contains 1.5×10^8 CFU/mL and the multipoint inoculators applies 1 μL spots of liquid, each bacterial suspension was diluted 1/15 (20 μL suspension to 280 μL sterile distilled water).
(§7) Bacterial suspensions were prepared from fresh 18-24 hour cultures as previously described. 1 μL of each strain was inoculated onto all 100 agar plates containing a different chemical concentration and the 2 control plates. This was done using a multipoint inoculator which inoculates 20 strains per plate. All plates were incubated for 22 hours at 37° C. in aerobic conditions.
(§8) Each plate was examined for bacterial growth after 22 and 48 hours, with each being incubated in between examinations. A positive result was recorded as growth of ≧10 colonies. A negative result was recorded as growth of <10 colonies as this is equivalent to 99.9% inhibition. The lowest concentration of chemical that inhibited growth was recorded as the MIC. The results are recorded in Table IV below, where the numbers are quoted in mmol/L. […]

[2] = system: Providencia rettgeri; assay: MIC agar dilution, micro-organism 3 (7475); conditions: Providencia rettgeri 7475
Method: as §1, §2, §3, §4, §5, §6, §7, §8

[3] = system: Steptococcus pyogenes; assay: MIC agar dilution, micro-organism 11 (8306); conditions: Steptococcus pyogenes 8306
Method: as §1, §2, §3, §4, §5, §6, §7, §8

[4] = system: Staphylococcus aureus (MRSA); assay: MIC agar dilution, micro-organism 12 (11939); conditions: Staphylococcus aureus (MRSA) 11939
Method: as §1, §2, §3, §4, §5, §6, §7, §8

[5] = system: Staphylococcus aureus; assay: MIC agar dilution, micro-organism 13 (6571); conditions: Staphylococcus aureus 6571
Method: as §1, §2, §3, §4, §5, §6, §7, §8

[6] = system: Staphylococcus epidermidis; assay: MIC agar dilution, micro-organism 14 (11047); conditions: Staphylococcus epidermidis 11047
Method: as §1, §2, §3, §4, §5, §6, §7, §8

[7] = system: Listeria monocytogenes; assay: MIC agar dilution, micro-organism 15 (11994); conditions: Listeria monocytogenes 11994
Method: as §1, §2, §3, §4, §5, §6, §7, §8

[8] = system: Enterococcus faecium; assay: MIC agar dilution, micro-organism 16 (7171); conditions: Enterococcus faecium 7171
Method: as §1, §2, §3, §4, §5, §6, §7, §8

[9] = system: Enterococcus faecalis; assay: MIC agar dilution, micro-organism 17 (775); conditions: Enterococcus faecalis 775
Method: as §1, §2, §3, §4, §5, §6, §7, §8

[10] = system: Bacillus subtilis; assay: MIC agar dilution, micro-organism 18 (9372); conditions: Bacillus subtilis 9372
Method: as §1, §2, §3, §4, §5, §6, §7, §8

[11] = system: Candida albicans; assay: MIC agar dilution, micro-organism 19 (90028); conditions: Candida albicans 90028
Method: as §1, §2, §3, §4, §5, §6, §7, §8

[12] = system: Candida glabrata; assay: MIC agar dilution, micro-organism 20 (3943); conditions: Candida glabrata 3943
Method: as §1, §2, §3, §4, §5, §6, §7, §8

[13] = system: Gram negative bacteria, Gram positive bacteria and pathogenic yeasts; assay: MIC agar dilution, summary statements over the micro-organisms tested (Tables I, IX); conditions: over the micro-organisms tested or some of them; read-out: MIC
Description: For a better understanding, the present invention will now be more particularly described, by way of non-limiting example only, as follows. The micro-organisms shown in Table I overleaf were acquired from the National Collection of Type Cultures (NCTC), Colindale, United Kingdom; the American Type Culture Collection (ATCC), Manassas, United States and the National Collection of Pathogenic Fungi (NCPF), Colindale, United Kingdom. They include Gram negative bacteria, Gram positive bacteria and pathogenic yeasts.
as §1, §2, §3, §4, §5, §6
as §7, with “conditions. […]” for “conditions.”

[14] = Staphylococcus aureus, MRSA, 22 h, 22 hrs, read-out: MIC
[15] = Staphylococcus aureus, MRSA, 48 h, 48 hrs, read-out: MIC
[16] = Staphylococcus aureus, 22 h, 22 hrs, read-out: MIC
[17] = Staphylococcus aureus, 48 h, 48 hrs, read-out: MIC
[18] = Nakaseomyces glabratus, 22 h, 22 hrs, read-out: MIC
[19] = Nakaseomyces glabratus, 48 h, 48 hrs, read-out: MIC

CCCCCCCCCCCCCCCCOCCOCCO [C2]
MIC ([1]; 22 hrs): >880 µM | MIC ([1]; 48 hrs): >880 µM | MIC ([2]; 22 hrs): >880 µM | MIC ([2]; 48 hrs): >880 µM | MIC ([3]; 22 hrs): 880 µM (≈ 291 µg/mL) | MIC ([3]; 48 hrs): >880 µM | MIC ([4]; 22 hrs): >880 µM | MIC ([4]; 48 hrs): >880 µM | MIC ([5]; 22 hrs): >880 µM | MIC ([5]; 48 hrs): >880 µM | MIC ([6]; 22 hrs): >880 µM | MIC ([6]; 48 hrs): >880 µM | MIC ([7]; 22 hrs): >880 µM | MIC ([7]; 48 hrs): >880 µM | MIC ([8]; 22 hrs): >880 µM | MIC ([8]; 48 hrs): >880 µM | MIC ([9]; 22 hrs): >880 µM | MIC ([9]; 48 hrs): >880 µM | MIC ([10]; 22 hrs): >880 µM | MIC ([10]; 48 hrs): >880 µM | MIC ([11]; 22 hrs): >880 µM | MIC ([11]; 48 hrs): >880 µM | MIC ([12]; 22 hrs): 880 µM (≈ 291 µg/mL) | MIC ([12]; 48 hrs): >880 µM

CCCCCCCCCCO [D0, 1-Decanol, reference compound]
MIC ([1]; 22 hrs, read-out: MIC): > 880 µM | MIC ([1]; 48 hrs, read-out: MIC): > 880 µM | MIC ([2]; 22 hrs, read-out: MIC): > 880 µM | MIC ([2]; 48 hrs, read-out: MIC): > 880 µM | MIC ([3]; 22 h, 22 hrs, read-out: MIC): > 880 µM | MIC ([3]; 48 h, 48 hrs, read-out: MIC): > 880 µM | MIC [4, 14]: > 880 µM | MIC [4, 15]: > 880 µM | MIC [5, 16]: > 880 µM | MIC [5, 17]: > 880 µM | MIC ([6]; 22 hrs, read-out: MIC): > 880 µM | MIC ([6]; 48 hrs, read-out: MIC): > 880 µM | MIC ([7]; 22 hrs, read-out: MIC): > 880 µM | MIC ([7]; 48 hrs, read-out: MIC): > 880 µM | MIC ([8]; 22 hrs, read-out: MIC): > 880 µM | MIC ([8]; 48 hrs, read-out: MIC): > 880 µM | MIC ([9]; 22 hrs, read-out: MIC): > 880 µM | MIC ([9]; 48 hrs, read-out: MIC): > 880 µM | MIC ([10]; 22 hrs, read-out: MIC): > 880 µM | MIC ([10]; 48 hrs, read-out: MIC): > 880 µM | MIC ([11]; 22 hrs, read-out: MIC): > 880 µM | MIC ([11]; 48 hrs, read-out: MIC): > 880 µM | MIC [12, 18]: > 880 µM | MIC [12, 19]: > 880 µM | MIC [13]: > 880 µM

CCCCCCCCCCCCO [L0, 1-Dodecanol, reference compound]
MIC ([1]; 22 hrs, read-out: MIC): > 880 µM | MIC ([1]; 48 hrs, read-out: MIC): > 880 µM | MIC ([2]; 22 hrs, read-out: MIC): > 880 µM | MIC ([2]; 48 hrs, read-out: MIC): > 880 µM | MIC ([3]; 22 h, 22 hrs, read-out: MIC): 440 µM (≈ 82 µg/mL) | MIC ([3]; 48 h, 48 hrs, read-out: MIC): ≥ 880 µM | MIC [4, 14]: 440 µM (≈ 82 µg/mL) | MIC [4, 15]: ≥ 880 µM | MIC [5, 16]: 440 µM (≈ 82 µg/mL) | MIC [5, 17]: ≥ 880 µM | MIC ([6]; 22 hrs, read-out: MIC): > 880 µM | MIC ([6]; 48 hrs, read-out: MIC): > 880 µM | MIC ([7]; 22 hrs, read-out: MIC): > 880 µM | MIC ([7]; 48 hrs, read-out: MIC): > 880 µM | MIC ([8]; 22 hrs, read-out: MIC): > 880 µM | MIC ([8]; 48 hrs, read-out: MIC): > 880 µM | MIC ([9]; 22 hrs, read-out: MIC): > 880 µM | MIC ([9]; 48 hrs, read-out: MIC): > 880 µM | MIC ([10]; 22 hrs, read-out: MIC): > 880 µM | MIC ([10]; 48 hrs, read-out: MIC): > 880 µM | MIC ([11]; 22 hrs, read-out: MIC): > 880 µM | MIC ([11]; 48 hrs, read-out: MIC): > 880 µM | MIC [12, 18]: 440 µM (≈ 82 µg/mL) | MIC [12, 19]: ≥ 880 µM
